US20080191164A1, “Method For the Treatment of a Material Other Than the Human Body” (priority 2005, published 2008)

What was measured:
Rinsability with water = type: physicochemical; design: key: 0 = poor; + = good; ++ = excellent
[1] = compulsory labelings; cited from earlier work
[2] = Volatility / aptitude for drying; type: physicochemical; design: key: 0 = low; + = moderate; ++ = high
man = settings: cited from earlier work; for toxicity for man: compulsory labelings T, Xn, R40, R45 and/or R65
[3] = Flammability / flashpoint of the compositions; type: physicochemical; design: key to FLA = flammability: − = no; +/° C. = yes/flashpoint
[4] = Biodegradability (general properties table)
[5] = background statement; cited from earlier work
[6] = Rate of evaporation with respect to n-butyl acetate; type: physicochemical; settings: 20° C.
[7] = system: aquatic organisms, such as bacteria, freshwater algae, daphnia and freshwater fish; assay: Toxicity for aquatic organisms
[8] = Risks of harmfulness, protection of the aquatic environment/bioaccumulation; design: key: − = harmfulness demonstrated; + = slight risk; ++ = very slight risks
Source text: For each of Compositions A to E, the characteristics of odor (“ODOR”), of stability at alkaline pH, i.e. at a pH of 9 (“STAB.”) and of risks of harmfulness in terms of protection of the aquatic environment/bioaccumulation (“BIO.”) are taken up in the table below according to the following notation: […]

[9] = advantages hitherto described; cited from earlier work
[10] = Ready biodegradability, OECD No. 301 A (DOC Die-away Test); settings: at 28 days

Compound | RIN = rinsability with water (Rinsability with water) | toxicity for the environment [1] | VOL = volatility/aptitude for drying [2] | toxicity for man (man) | FLA = flammability [3] | BIO = biodegradability [4] | FLA: flashpoint [3] | flashpoint [5] | rate of evaporation with respect to n-butyl acetate [6] | toxicity for aquatic organisms [7] | BIO. (risks of harmfulness, aquatic environment/bioaccumulation) [8] | miscibility with water [9] | ready biodegradability (OECD No. 301 A) [10] | irritant nature and toxicity to man (man; advantages hitherto described)
ClC=C(Cl)Cl [Composition 1, trichloroethylene] | 0 | compulsory labelings R51/R53 | ++ | a certain toxicity for man | − | − |  |  |  |  |  |  |  | 
ClCCl [Composition 2, dichloromethane] | 0 | compulsory labelings R51/R53 | ++ | a certain toxicity for man | − | − |  |  |  |  |  |  |  | 
C=C(C)[C@H]1CC=C(C)CC1 [Composition 3, dipentene] | 0 |  | ++ |  | + | + | 48 °C |  |  |  |  |  |  | 
CCOC(=O)C(C)O (stereo not shown) [Composition 4, ethyl lactate] | + |  | + |  | + |  | 46 °C | 46 °C |  |  |  |  |  | 
CO[C@H]1CO[C@H]2[C@@H]1OC[C@H]2OC [Composition 5, dimethyl isosorbide] | ++ |  | 0 |  | + | + | 120 °C |  | less than 0.005 | absence of toxicity | ++ | in all proportions | ~25% | absence of irritant nature and of toxicity to man
C=C(C)[C@H]1CC=C(C)CC1 [d-limonene] |  |  |  |  |  |  |  | 48 °C |  |  |  |  |  | 
